Our source for the half-life values is PubChem BioAssay AID1508591.

SMILES strings stand for the structures.

For this series the following is noted: rat; liver microsomes; pH 7.4; 15.0 min; 1.0 µM.
Molecule `Clc1cccc(COc2cncc(N3CCNCC3)n2)c1` gave a half-life of 2.55 min.

Regarding `CC(C)c1ccccc1-c1ncc(F)c(NCC2CCN(c3cnccn3)C2)n1` (stereo unspecified), the half-life worked out at 2.2 min.

`O=C1C2=C(Nc3ccccc3SC2c2ccco2)c2ccccc21` (stereo unspecified) gave a half-life of 4.01 min. The same measure for `FC1(F)CCN(c2nc(-c3ccncc3)nc3ccccc23)CC1`: 9.4 min; for `COc1ccccc1C(=O)Nc1nnc(SCc2cc(=O)c3ccccc3[nH]2)s1`: 7.49 min; for `Cc1nn2c(c1-c1ccccc1-c1ccccc1)N(CC1CC1)CCC2`: 2.78 min. Turning to `Cc1ccc(-c2nnc(Nc3ccc(Br)cc3)c3ccccc23)cc1S(=O)(=O)N1CCN(C)CC1`, the half-life was 1.31 min. Turning to `Cc1nc(Sc2nnnn2C)c2c(-c3ccccc3)csc2n1`, the half-life is 1.6 min.

Molecule `CCc1ccc(C2Sc3ccccc3NC3=C2C(=O)c2ccccc23)cc1` (stereo unspecified) displayed a half-life of 1.81 min. The molecule `Cc1cnc(-c2ccccc2C(C)C)nc1NCC1CCN(c2cccnc2)C1` (stereo unspecified) showed a half-life of 2.87 min.

`Cc1cccc2nc(NC3=NC(c4[nH]ncc4Cl)C4=C(CCCC4=O)N3)oc12` (stereo unspecified): the half-life turned out to be 1.6 min. The same measure for `Cc1nn2c(c1-c1ccccc1-c1ccccc1)N(Cc1ccccc1)CCC2`: 1.23 min; for `CCOC(=O)c1ccc(-n2cnc3cc(C(=O)N4CCCCC4)ccc32)cc1`: 1.7 min. `CCN(CCCOc1ccc2c(Nc3cc(CC(=O)Nc4cccc(F)c4)[nH]n3)ncnc2c1)CCOP(=O)(O)O` registered a half-life above 30 min. The molecule `O=C(NC[C@H]1Cn2c(-c3ccc(Cl)cc3)cnc2CO1)C1CCCC1` displayed a half-life above 30 min. The same measure for `CCOc1ccc(CCNC(=O)c2cc3ccccc3n2Cc2ccccn2)cc1OCC`: 1.5 min. The same measure for `CCOc1ccc(-c2nnc(SCC(=O)NCc3ccccc3Cl)o2)cc1`: 3.32 min; for `COc1ccc(-c2cc(C)nc3c(-c4ccc(OC)c(OC)c4)c(C)nn23)cc1`: above 30 min. The same measure for `CCOc1ccccc1N(CC(=O)N1CCOCC1)S(=O)(=O)c1ccc(SC)cc1`: 1.45 min. Turning to `CCNc1oc(-c2cccc3ccccc23)nc1C#N`, the half-life was determined as 13 min. The same measure for `Cc1noc(C)c1C(=O)N1CCC2(CC1)CCN(C(c1ccccc1)c1ccccc1)CC2`: 9.4 min. In the case of `Clc1ccc2ncc(-c3cccc(NC4CNC4)n3)n2c1`, the half-life was 13.6 min.

With `O=S(=O)(Nc1cccc2ccccc12)c1ccc(NCc2ccc(Br)cc2O)cc1`, the half-life was 7.4 min. This half-life lies about 1.8-fold lower than the previous one. The same measure for `CN(Cc1ccccc1)C(=O)c1ccc(S(=O)(=O)Nc2ccccc2)cc1`: 1.64 min.

`CC1=C(C(=O)Nc2nncs2)C(c2ccccc2Br)N=C(Nc2nc3ccccc3o2)N1` (stereo unspecified) gave a half-life above 30 min. The same measure for `O=C(Nc1nnc(-c2cccs2)o1)c1ccc(Cl)cc1`: 2.9 min; for `NC(=O)C1CCN(c2nnc(-c3ccc4c(c3)OCCCO4)s2)CC1`: above 30 min. With `COCCn1ccc2c(C3=CCOCC3)nc(-c3cccc(NC(C)=O)c3)cc21`, the half-life is above 30 min.

In the case of `Cc1noc(C)c1-c1ccc(Nc2nc(-c3ccncc3)nc3ccccc23)cc1F`, the half-life was 10 min.

The molecule `CCc1ccc(S(=O)(=O)Nc2cnccc2C(=O)Nc2nc(-c3ccccc3)cs2)cc1` registered a half-life of 4.4 min. The same measure for `O=C(c1nc(-c2cccnc2)c2ccccn12)N1CCOCC1`: above 30 min; for `Fc1ccccc1-c1nc(NCc2ccc(-c3cccnc3)cc2)c2ccccc2n1`: 5.9 min. The same measure for `CC(=O)N[C@H]1CN(C2CCN(c3ccc(F)cc3C)CC2)C[C@@H]1C1CC1`: 2.3 min; for `Cc1c(C)n(Cc2ccccc2)c2ccc(C(=O)OCCN(C)C)cc12`: 1.78 min. In the case of `O=C(O)CNC(=O)c1c(O)c2ccccc2n(Cc2ccccc2)c1=O`, the half-life amounted to 23.6 min. Turning to `CCc1ccc(-n2nc(C)c3c2NC(=O)CSC3c2ccccc2C)cc1` (stereo unspecified), the half-life was determined as 2.44 min. As for `CCOc1ccc(CCNC(=O)c2cc3ccccc3n2C)cc1OCC`, the half-life worked out at 1.38 min. `COc1ccccc1NC(=O)C1=C(C)Nc2c(C(=O)Nc3ccc(F)cc3)cnn2C1c1ccc(Cl)cc1` (stereo unspecified): the half-life came to 3.34 min. This half-life lies about 2.4-fold higher than the previous one.

Regarding `CCOc1ccc(N2CC(c3nc(-c4cc(OC)c(OC)c(OC)c4)no3)CC2=O)cc1` (stereo unspecified), the half-life is 7.3 min. The same measure for `COc1ccc(C2c3c(oc4ccc(C)cc4c3=O)C(=O)N2CCCN2CCOCC2)cc1OC` (stereo unspecified): 7.59 min. The same measure for `CCc1cccc(NC(=O)c2c(C)oc3nc(C)nc(N4CCCC4)c23)c1`: 1.41 min; for `C#CCNC(=O)c1nc(-c2ccc([S+](C)(=O)[O-])cc2)c2cnccn12`: above 30 min; for `CCN(CC)S(=O)(=O)c1ccc(N2CCCC2)c(NS(=O)(=O)c2ccccc2)c1`: 1.1 min. The same measure for `COc1ccc(C2=Nn3c([n+](C)c4ccccc43)SC2)cc1`: above 30 min; for `O=C(O)c1cccc(-n2cccc2/C=C2/NC(=O)N(c3cccc(Cl)c3)C2=O)c1`: above 30 min; for `COc1cccc(CNc2ccc([S+](=O)([O-])Nc3cc4ccccc4s3)cc2)c1O`: 3.5 min. For `Cc1sc2c(c1C)C(c1ccc(Cl)cc1)=N[C@H](CC(=O)NCCCCNC(=O)COc1cccc3c1C(=O)N([C@H]1CCC(=O)NC1=O)C3=O)c1nnc(C)n1-2`, the half-life amounted to 4.93 min.

Molecule `N#Cc1ccc(NS(=O)(=O)c2ccc(NC(=O)Cc3ccc(Cl)c(Cl)c3)cc2)cc1` had a half-life above 30 min. The same measure for `CCOc1ccccc1N1CC(c2nc3ccccc3n2CCOc2ccc(C(C)(C)C)cc2)CC1=O` (stereo unspecified): 2.34 min; for `COc1ccc(-c2nc3c(c(SCC(=O)Nc4ccc(C(=O)O)cc4)n2)Cc2ccccc2O3)cc1`: above 30 min; for `Fc1cc(Nc2nc(-c3ccncc3)nc3ccccc23)ccc1-c1ccncc1`: 13 min. The same measure for `COc1ccc(NC2CCCN(C(=O)CCc3ccccc3F)C2)cc1` (stereo unspecified): 2.36 min. The same measure for `CN(C)C(=O)c1nc(-c2ccc(Cl)nc2)c2ccccn12`: above 30 min. `c1ccc(CNc2cc3c(cn2)CN(Cc2cccnc2)CCN3)cc1`: the half-life stood at 15 min. As to `CC(C)c1ccccc1-c1ncc(F)c(NCc2ccc(-c3cccnc3)s2)n1`, the half-life was found to be 2.8 min.

With `COC(=O)CNC(=O)c1nc(-c2ccccc2OC)c2ccccn12`, the half-life worked out at 5.38 min.

Molecule `CCc1oc2ccccc2c1C(=O)c1cc(I)c(O)c(I)c1` returned a half-life of 13.7 min. This half-life is about 2.5-fold higher than that of the molecule before. The same measure for `COc1ccc(C(=O)N2CCC3(CC2)CN(c2cccc(-c4ccccc4)c2)C3)cc1`: 22 min; for `COc1ccc(-n2c(C)c(C(C)=O)c3ccccc32)cc1`: 2.4 min; for `Cc1ccc(-c2[nH]n3c(=O)c4c(nc3c2C)CCCC4)cc1`: 8.72 min. The same measure for `CC(C)(C)C(O)C(Oc1ccc(Cl)cc1)n1cncn1` (stereo unspecified): above 30 min; for `COc1cc(Cl)cn2c(-c3cccc(NC4CNC4)n3)cnc12`: above 30 min. Regarding `CCn1c(-c2nonc2N)nc2cnc(Oc3cccc(NC(=O)c4ccc(OCCN5CCOCC5)cc4)c3)cc21`, the half-life was determined as 6.56 min. The same measure for `CC1(C)CCC(c2ccc(Cl)cc2)=C(CN2CCN(c3ccc(C(=O)NS(=O)(=O)c4ccc(N[C@H](CCN5CCOCC5)CSc5ccccc5)c(S(=O)(=O)C(F)(F)F)c4)cc3)CC2)C1`: above 30 min; for `COc1cccc(CNc2ccc(C(=O)Nc3nccs3)cc2)c1O`: above 30 min; for `CC(=O)c1c(C)c2cnc(Nc3ccc(N4CCNCC4)cn3)nc2n(C2CCCC2)c1=O`: above 30 min.

`CC(C)c1ccccc1-c1ncc(F)c(NCc2ccc(-n3ccnn3)cc2)n1` displayed a half-life of 4.4 min. The same measure for `CS(=O)(=O)c1ccccc1-c1csc(N2CCC(C(N)=O)CC2)n1`: above 30 min; for `CCCCN(C)C(=O)c1c(C)sc2ccn(CCC)c(=O)c12`: 13.3 min; for `CC(C)(C)c1ccc(C(=O)Nc2ccc3c(c2)CCCN3C(=O)c2cccs2)cc1`: 2.33 min. Molecule `Cc1cc(-c2nnc3n2CCCCC3)c(C)n1-c1ccc(C(F)(F)F)cc1` displayed a half-life of 2.1 min. The same measure for `CN1C(=O)c2ccccc2[S@](=O)c2ccc(C(=O)NCCc3cccs3)cc21`: 7.2 min; for `CCOc1ccc(CCNC(=O)c2ccc(C(=O)c3ccccc3)cc2)cc1OCC`: 2.8 min. The same measure for `CN(C)c1cccc(-c2ccnc(N3CCC(C(N)=O)CC3)n2)c1`: 1.67 min. The same measure for `Cc1cccc(C)c1C(=O)Nc1cccc([S+](=O)([O-])N(C)C)c1`: 8 min; for `NC(=O)c1ccc(-c2ncc3cnc(-c4cccc(F)c4)cn23)cc1`: 20.7 min. As to `O=C(c1cc2ccccc2[nH]1)N1CCc2c(n(Cc3cccnc3)n(CCc3ccccc3)c2=O)C1`, the half-life is 1.55 min. The same measure for `O=C(Nc1ccc(Cl)cc1Cl)c1cnc2ccccc2n1`: 3 min; for `O=S(=O)(Nc1cnc2ccccc2c1)c1ccc(NCc2ccc(Br)cc2O)cc1`: 18 min; for `COc1ccc(Cn2c(C(=O)O)c(CNCc3ccco3)c3ccc(C)cc32)cc1`: above 30 min. The same measure for `COc1ccc(CNC(=O)c2sc3nc(C)cc(C)c3c2N)cc1`: 8.47 min; for `COc1ccc(NC(=O)c2[nH]c(C)c(C(C)=O)c2C)cc1S(=O)(=O)Nc1cccc(C#N)c1`: 15 min. The same measure for `CNC(=O)c1nn(C)c2c1C(C)(C)Cc1cnc(Nc3ccc(N4CCN(C)CC4)cc3)nc1-2`: above 30 min; for `CN1CCc2cc3c(cc2C1)OCO3`: 1 min.

`Cc1noc(C)c1Cc1ccc(C(=O)N2CCc3c(nc4cc(-c5ccccc5)[nH]n4c3=O)C2)o1` gave a half-life of 3.38 min.

On to `Cc1ccc(NC(=O)C(Cc2ccccc2)NS(=O)(=O)c2cccs2)cc1Cl` (stereo unspecified), for which the half-life worked out at 1.12 min. This half-life lies about 3-fold lower than the previous one.

`C#CC1(O)CCC2C3CCC4=C/C(=N/OCC(=O)NCC(=O)NC(C(=O)O)C(C)C)CC[C@]4(C)C3CC[C@@]21C` (stereo partly specified) registered a half-life above 30 min. The same measure for `Nc1ccc(-c2cccc3c(=O)cc(N4CCOCC4)oc23)cc1`: above 30 min; for `Cc1ccc(-c2cc(C(=O)NCc3cnn(C)c3C)c3cc(Br)ccc3n2)cc1`: 12 min; for `O=C(O)c1ccnc(-c2cc(C(=O)NCCc3ccccc3)ccn2)c1`: above 30 min. The same measure for `CCOc1ccc(NC(=O)CC2C(=O)N(c3ccc(F)cc3)C(=O)N2CCc2sccc2C)cc1` (stereo unspecified): 1.33 min.

For orientation: half-life means the time in which the quantity being followed falls by half. A low value points to rapid decline.
